In the test the target is Nitric oxide synthase 1 (Homo sapiens, UniProt P29475).

Molecules are shown by their SMILES.

What is called Ki is the dissociation constant of the complex between target and ligand, obtained from inhibition or displacement.

Nitric oxide synthase 1, sequence (P29475 whole entry): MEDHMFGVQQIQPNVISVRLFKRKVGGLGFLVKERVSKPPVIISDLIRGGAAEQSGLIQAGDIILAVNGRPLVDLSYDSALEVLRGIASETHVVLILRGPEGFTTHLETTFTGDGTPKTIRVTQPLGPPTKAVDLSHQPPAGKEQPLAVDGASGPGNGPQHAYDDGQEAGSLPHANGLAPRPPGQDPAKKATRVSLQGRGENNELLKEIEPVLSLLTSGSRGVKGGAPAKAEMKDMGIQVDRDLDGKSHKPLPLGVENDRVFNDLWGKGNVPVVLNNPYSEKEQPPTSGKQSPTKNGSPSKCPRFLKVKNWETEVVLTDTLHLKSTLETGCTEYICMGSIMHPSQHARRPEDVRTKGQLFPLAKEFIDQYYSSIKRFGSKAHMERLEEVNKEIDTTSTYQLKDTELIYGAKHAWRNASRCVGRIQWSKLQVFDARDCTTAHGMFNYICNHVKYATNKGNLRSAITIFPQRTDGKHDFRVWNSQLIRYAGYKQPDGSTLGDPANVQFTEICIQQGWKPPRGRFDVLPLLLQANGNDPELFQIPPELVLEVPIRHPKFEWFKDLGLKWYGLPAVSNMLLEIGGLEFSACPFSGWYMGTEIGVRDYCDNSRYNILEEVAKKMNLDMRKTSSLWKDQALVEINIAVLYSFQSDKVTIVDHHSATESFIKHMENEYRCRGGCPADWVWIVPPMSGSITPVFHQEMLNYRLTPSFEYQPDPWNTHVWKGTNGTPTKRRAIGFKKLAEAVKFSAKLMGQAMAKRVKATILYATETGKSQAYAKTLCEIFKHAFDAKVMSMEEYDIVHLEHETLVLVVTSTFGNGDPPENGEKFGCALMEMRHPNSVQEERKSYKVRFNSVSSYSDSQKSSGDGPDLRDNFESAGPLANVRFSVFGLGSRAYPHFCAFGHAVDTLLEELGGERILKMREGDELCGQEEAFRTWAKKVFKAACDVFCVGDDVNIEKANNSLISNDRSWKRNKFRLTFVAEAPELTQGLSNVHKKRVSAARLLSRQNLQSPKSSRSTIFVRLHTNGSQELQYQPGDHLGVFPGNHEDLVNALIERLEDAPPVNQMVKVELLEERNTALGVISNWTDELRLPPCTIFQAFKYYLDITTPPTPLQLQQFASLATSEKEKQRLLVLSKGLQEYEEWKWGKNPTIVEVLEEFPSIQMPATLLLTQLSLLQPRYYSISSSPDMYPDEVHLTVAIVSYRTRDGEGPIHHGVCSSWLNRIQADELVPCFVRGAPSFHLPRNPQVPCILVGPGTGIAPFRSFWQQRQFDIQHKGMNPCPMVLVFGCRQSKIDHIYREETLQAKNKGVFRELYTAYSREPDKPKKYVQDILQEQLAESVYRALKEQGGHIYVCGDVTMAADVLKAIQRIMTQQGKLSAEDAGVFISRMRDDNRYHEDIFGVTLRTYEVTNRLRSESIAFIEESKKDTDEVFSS

In the case of `Cc1cc(N)nc(CCc2cc(CCCN(C)C)cc(F)c2F)c1`, the inhibition constant (Ki) came out at 29 nM.

These data come from ChEMBL document CHEMBL4400558, “Optimization of Blood-Brain Barrier Permeability with Potent and Selective Human Neuronal Nitric Oxide Synthase Inhibitors Having a 2-Aminopyridine Scaffold” (J Med Chem, 2019).
